Assay [1] in a line: CF transport assay in anionic vesicles. In kind it is biochemical. The following applies: heptaArg cargo; for heptaArg Ymax, anionic vesicles / EC50: CF assay, pH 7.4; for heptaArg Ymax, anionic vesicles: DMPE/DPPG/CHOL 1/2/1 (anionic), 13 µM phospholipids, 10 mM Tris, 140 mM NaCl; for EC50 / heptaArg E, anionic vesicles: DMPE/DPPG/CHOL (anionic); for heptaArg E, anionic vesicles: f = 20.6. The procedure:
To better mimic biological membranes, which contain negatively charged components and cholesterol, equivalent transport experiments were performed in anionic liposomes^[ [19], [20] ^] with the prototypal POM carriers, [PVW11]^4‒ and [SiMoW11]^4‒ . […] This encouraged us to transfer the experiments to CHO‐K1 (Chinese hamster ovary) cells, after we had confirmed sufficient stability of the most promising POM carriers, [PVW11]^4‒ and [SiMoW11]^4‒ , in the cellular nutrient mixture (F‐12 Ham's medium, Figures S26–S28C, Supporting Information).
Anionic vesicles were prepared analogously except for the lipid composition, DMPE/DPPG/CHOL (4.4/10.4/2.6 mg, 1/2/1 molar ratio, DMPE: 1,2‐dimyristoyl‐sn‐glycero‐3‐phosphoethanolamine; DPPG: 1,2‐dipalmitoyl‐sn‐glycero‐3‐phospho‐(1´‐rac‐glycerol); CHOL: cholesterol) in a 1:1 mixture of CHCl3 and MeOH (1 mL), the hydration (60 min) and extrusion were performed at 55 °C, and the employed buffers were 100 mM CF, 10 mM Tris, pH 7.4 and 10 mM Tris, 140 mM NaCl, pH 7.4 for rehydration and elution, respectively.
Vesicles stock solutions (5–10 µL) were diluted with the corresponding buffer in a disposable plastic cuvette and gently stirred (total volume 2000 µL, final lipid concentration 13 µM). Carboxyfluorescein fluorescence was monitored at λ em = 517 nm (λ ex = 492 nm) as a function of time after addition of POMs at 60 s, analyte at 120 s and Triton X‐100 (24 µL 1.2% wt/vol) at 600 s to lyse the vesicles, for calibration. Fluorescence intensities were normalized to fractional emission as (1) It=It−I0/I∞−I0 where I 0 = I t before POM addition and […] after lysis. For Hill analysis, I t before lysis was defined as transport activity, Y, and plotted against POM concentration, c, and fitted to the Hill Equation (2), to afford the activity in absence of POM, Y 0, the maximal activity, Y max, the concentration needed to achieve 50% of maximal activity, EC 50, and the Hill coefficient, n (2) Y=Y0+Ymax−Y0/1+EC50/c^n […]
Figure S8. Heptaarginine transport through anionic vesicles[22-23][24] (DMPE/DPPG/CHOL, 1/2/1 molar ratio) facilitated by [PVW11]4‒ (a) and [SiMoW11]4‒ (c). Transport activity as function of [PVW11]4‒ (b) and [SiMoW11]4‒ (d) concentration, solid lines correspond to the resulting fit with the Hill equation.
Table S5. Membrane transport parameters of active POMs towards different analytes and different lipid composition. […]
a) 13 µM phospholipids. b) 10 µM cargo. c) Maximal activity; ±2% error (SD). d) Effective concentration to reach 50% activity of Ymax; 5 % error (SD). e) Activation efficiency E = Ymax (pEC50/f), were pEC50 is the negative logarithm of the EC50, and f a scaling factor set to 20.6 to allocate E between 0

Another assay concerns polyarginine. Description: ITC, POM into polyarginine. In kind it is binding. The following applies: 10 mM Tris, pH 7.4, value is Ka divided by 10^7. The procedure: All experiments were performed with a VP‐ITC MicroCalorimeter from MicroCal, Int,. at atmospheric pressure and 298.15 K. Solutions were degassed and thermostatic prior to the titration experiments in a ThermoVac accessory. A constant volume of POM ([PVW11]^4‒ or [SiMoW11]^4‒) (10 µL per injection) was injected into the oligopeptide solution (heptaArg, protamine, polyArg or heptaLys) in 10 mM Tris, pH 7.4 to determine the apparent binding affinity of [PVW11]^4‒ and [SiMoW11]^4‒ with the oligopeptides. Dilution heats were determined by titration of the POM into buffer and subtracted from the reaction heat. The neat reaction heat was fitted with Origin 7.0 software by using the “one‐set‐of‐sites” model to obtain the complex stability constant (K a) and molar reaction enthalpy (∆H°). The free energy (∆G°) and entropy changes (∆S°) were obtained according to the relation: ∆G° = −RTlnK a = ∆H°−T∆S°.
4. Supramolecular interactions
Figure S10. Microcalorimetric titrations in 10 mM Tris, pH 7.4: Raw ITC data (top) for the sequential injections of POM solution into an oligoarginine solution, and apparent reaction heats (bottom) obtained from the integration of the calorimetric traces. […]
values and ± 0.5 kcal mol‒1 for ΔH and TΔS (duplicate measurements). Note that none of these interactions lead to any precipitation or aggregates, confirmed by the absence of any detectable signal by DLS. […]

As for “K4[α‐P^VV^VW^VI 11O40]·4H2O [[PVW11]^4‒]”, in assay [1], the “heptaArg Ymax, anionic vesicles” value was 45%; the EC50 turned out to be 50 µM; the “heptaArg E, anionic vesicles” value stood at 2.8. Further, the “Ka/ 107, polyarginine” value in the assay on polyarginine is on record as 3.5 M‒1.

In the case of “K4[α‐Si^IVMo^VIW^VI 11O40]·24H2O [[SiMoW11]^4‒]”, in assay [1], the “heptaArg Ymax, anionic vesicles” value is 61%; the half-maximal effective concentration (EC50) is 60 µM; the “heptaArg E, anionic vesicles” value was 3.6. Also, the “Ka/ 107, polyarginine” value in the assay on polyarginine was 1.6 M‒1.
